Literature values, collected in publication PMC3388044, “Probing of Exosites Leads to Novel Inhibitor Scaffolds of HCV NS3/4A Proteinase” (PLoS ONE, 2012).
Where two headings read alike, the source gives them in different places.

Key:
[1] = system: HCV replicon (NS3/4A V36M); settings: mutant HCV replicon with luciferase readout; cited from earlier work
[2] = system: NS3/4A (WT); settings: purified recombinant WT NS3/4A in vitro; read-out: WT IC50 (purified enzyme); cited from earlier work
[3] = system: HCV replicon (NS3/4A R155K); settings: mutant HCV replicon with luciferase readout; cited from earlier work
[4] = target: NS3/4A; design: method as in PMID 19505593; settings: cited from earlier work
[5] = system: NS3/4A D168A; settings: cited from earlier work
[6] = system: HCV replicon (NS3/4A A156T); settings: cited from earlier work
[7] = system: HCV replicon (WT NS3/4A); settings: HCV replicon with luciferase readout; cited from earlier work
[8] = system: NS3/4A R155K; settings: cited from earlier work
[9] = system: HCV replicon (NS3/4A D168A); settings: cited from earlier work
[10] = system: NS3/4A V36M; settings: cited from earlier work
[11] = fold change vs WT, purified recombinant enzyme
[12] = fold change vs WT, mutant HCV replicon
[13] = mutant HCV replicon with luciferase readout

CCC[C@H](NC(=O)[C@@H]1[C@H]2CCC[C@H]2CN1C(=O)[C@@H](NC(=O)[C@@H](NC(=O)c1cnccn1)C1CCCCC1)C(C)(C)C)C(=O)C(=O)NC1CC1 [Telaprevir, telaprevir]
IC50 [1]: 886 nM
IC50 [2]: 24 nM
IC50 [3]: 1470 nM
Ki ([4]; improved KI after fast covalent bond formation, read-out: KI after covalent bond formation): ~40 nM
Ki ([4]; initial non-covalent binding step, read-out: KI, non-covalent binding step): ~6000 nM
D168A FC (purified enzyme) [5, 11]: 0.4
IC50 ([5]; purified recombinant mutant NS3/4A in vitro, read-out: D168A IC50 (purified enzyme)): 9 nM
A156T FC (replicon) [6, 12]: 105
IC50 [6, 13]: 20300 nM
IC50 [7]: 150 nM
R155K FC (purified enzyme) [8, 11]: 4.8
IC50 ([8]; purified recombinant mutant NS3/4A in vitro, read-out: R155K IC50 (purified enzyme)): 115 nM
D168A FC (replicon) [9, 12]: 0.4
IC50 [9, 13]: 46 nM
V36M FC (purified enzyme) [10, 11]: 11.3
IC50 ([10]; purified recombinant mutant NS3/4A in vitro, read-out: V36M IC50 (purified enzyme)): 270 nM
